According to ChEMBL document CHEMBL1909046, “DrugMatrix in vitro pharmacology data”:

Key:
[1] = DRUGMATRIX: Sodium/nucleoside co-transporter radioligand binding (ligand: nitrobenzylthioinosine); assay type: cell membranes, Cavia porcellus, Dunkin-Hartley, Cerebral cortex, Membrane; details: Not Active = under 50% inhibition at 10 µM
[2] = DRUGMATRIX: Atrial Natriuretic Factor (ANF) radioligand binding (ligand: [125I] ANF (rat)); assay type: cell membranes, Cavia porcellus, Dunkin-Hartley, Adrenal gland, Membrane; details: Not Active = under 50% inhibition at 10 µM
B2 bradykinin receptor = molecular target: T1, B2 bradykinin receptor (Homo sapiens, UniProt P30411); assay type: cell membranes, Membrane; details: chem-1; note: in other assays of this panel Not Active means under 50% inhibition at 10 µM
T1 sequence (P30411 whole entry): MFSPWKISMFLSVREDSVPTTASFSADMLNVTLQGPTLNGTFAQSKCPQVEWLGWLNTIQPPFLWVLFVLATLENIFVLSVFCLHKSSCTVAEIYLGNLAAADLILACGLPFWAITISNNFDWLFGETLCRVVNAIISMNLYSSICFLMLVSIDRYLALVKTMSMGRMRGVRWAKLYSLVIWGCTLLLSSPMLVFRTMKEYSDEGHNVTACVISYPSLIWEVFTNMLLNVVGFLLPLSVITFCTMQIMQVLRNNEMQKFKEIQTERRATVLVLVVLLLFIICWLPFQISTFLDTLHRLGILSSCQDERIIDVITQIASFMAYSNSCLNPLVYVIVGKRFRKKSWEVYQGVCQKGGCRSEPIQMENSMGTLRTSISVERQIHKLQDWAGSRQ

[3] = molecular target: T2, Vasoactive intestinal polypeptide receptor 1 (Homo sapiens, UniProt P32241); assay type: cell membranes, Membrane; details: ht-29; note: in other assays of this panel Not Active means under 50% inhibition at 10 µM
T2 sequence (P32241 whole entry): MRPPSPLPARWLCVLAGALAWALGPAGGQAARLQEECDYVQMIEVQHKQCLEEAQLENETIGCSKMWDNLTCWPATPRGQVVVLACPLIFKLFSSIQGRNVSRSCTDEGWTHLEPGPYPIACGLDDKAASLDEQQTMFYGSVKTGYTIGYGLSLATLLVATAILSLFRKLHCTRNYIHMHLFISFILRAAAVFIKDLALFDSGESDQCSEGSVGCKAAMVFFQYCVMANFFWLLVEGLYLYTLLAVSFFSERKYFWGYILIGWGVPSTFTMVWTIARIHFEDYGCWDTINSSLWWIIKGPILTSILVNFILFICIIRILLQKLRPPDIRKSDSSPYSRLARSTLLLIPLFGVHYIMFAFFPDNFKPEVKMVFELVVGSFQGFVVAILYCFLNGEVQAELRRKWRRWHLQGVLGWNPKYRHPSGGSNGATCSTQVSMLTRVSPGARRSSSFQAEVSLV

[4] = molecular target: T3, Cholecystokinin receptor type A (Homo sapiens, UniProt P32238); assay type: cell membranes, Membrane; details: 1321-n1; note: in other assays of this panel Not Active means under 50% inhibition at 10 µM
T3 sequence (P32238 whole entry): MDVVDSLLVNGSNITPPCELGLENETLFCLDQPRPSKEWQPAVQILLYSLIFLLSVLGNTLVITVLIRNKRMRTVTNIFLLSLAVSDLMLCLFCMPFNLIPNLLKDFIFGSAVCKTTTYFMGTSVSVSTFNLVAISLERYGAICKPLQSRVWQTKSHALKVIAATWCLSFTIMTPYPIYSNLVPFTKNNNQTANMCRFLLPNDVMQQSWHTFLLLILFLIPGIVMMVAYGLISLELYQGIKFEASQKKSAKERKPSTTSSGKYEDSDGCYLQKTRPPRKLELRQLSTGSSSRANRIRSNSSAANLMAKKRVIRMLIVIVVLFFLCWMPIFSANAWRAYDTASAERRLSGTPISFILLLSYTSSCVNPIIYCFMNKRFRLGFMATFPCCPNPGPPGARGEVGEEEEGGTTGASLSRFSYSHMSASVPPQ

[5] = molecular target: T4, Neuropeptide Y receptor type 2 (Homo sapiens, UniProt P49146); assay type: cell membranes, Membrane; details: kan-ts; note: in other assays of this panel Not Active means under 50% inhibition at 10 µM
T4 sequence (P49146 whole entry): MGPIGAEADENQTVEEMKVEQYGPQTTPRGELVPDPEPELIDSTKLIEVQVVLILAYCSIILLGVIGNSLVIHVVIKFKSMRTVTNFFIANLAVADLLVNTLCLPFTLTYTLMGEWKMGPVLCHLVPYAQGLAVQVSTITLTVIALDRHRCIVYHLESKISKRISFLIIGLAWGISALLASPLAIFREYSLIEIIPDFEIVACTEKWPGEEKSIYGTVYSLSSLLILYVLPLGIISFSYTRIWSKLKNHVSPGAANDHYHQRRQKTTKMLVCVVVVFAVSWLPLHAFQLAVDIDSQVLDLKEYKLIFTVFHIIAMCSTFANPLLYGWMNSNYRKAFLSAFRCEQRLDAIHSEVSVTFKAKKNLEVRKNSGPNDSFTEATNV

[6] = DRUGMATRIX: Phorbol Ester radioligand binding (ligand: [3H] PDBu); assay type: cell membranes, Mus musculus, ICR, Brain, Membrane; details: Not Active = under 50% inhibition at 10 µM
Neutrophil elastase = molecular target: T5, Neutrophil elastase (Homo sapiens, UniProt P08246); assay type: tissue-based
T5 sequence (P08246 whole entry): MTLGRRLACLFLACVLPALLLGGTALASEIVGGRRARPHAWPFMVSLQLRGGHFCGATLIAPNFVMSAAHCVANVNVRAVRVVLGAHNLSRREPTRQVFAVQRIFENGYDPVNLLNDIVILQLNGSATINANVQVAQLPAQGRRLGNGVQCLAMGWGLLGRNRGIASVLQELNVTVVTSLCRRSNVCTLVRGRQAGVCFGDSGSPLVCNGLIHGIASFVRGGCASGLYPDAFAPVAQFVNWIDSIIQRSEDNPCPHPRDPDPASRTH

Adenosine receptor A2a = Adenosine receptor A2a (Homo sapiens, UniProt P29274); assay: DRUGMATRIX: Adenosine A2A radioligand binding (ligand: […]); assay type: cell membranes, HEK293, Membrane; details: hek293; Not Active = under 50% inhibition at 10 µM
Sequence of Adenosine receptor A2a (P29274 whole entry): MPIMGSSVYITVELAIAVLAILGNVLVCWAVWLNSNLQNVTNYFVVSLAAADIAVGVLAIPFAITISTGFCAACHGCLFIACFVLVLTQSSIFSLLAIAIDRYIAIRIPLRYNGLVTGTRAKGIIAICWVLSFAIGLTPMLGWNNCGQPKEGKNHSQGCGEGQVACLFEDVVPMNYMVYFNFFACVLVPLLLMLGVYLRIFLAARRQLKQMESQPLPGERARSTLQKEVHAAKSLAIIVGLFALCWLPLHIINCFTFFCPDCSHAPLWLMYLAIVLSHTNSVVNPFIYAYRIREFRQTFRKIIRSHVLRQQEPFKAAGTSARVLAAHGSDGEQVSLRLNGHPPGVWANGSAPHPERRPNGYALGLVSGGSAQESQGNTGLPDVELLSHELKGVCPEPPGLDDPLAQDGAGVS

Cc1cnc(NC(=O)C2=C(O)c3ccccc3S(=O)(=O)N2C)s1 [MELOXICAM]
Not Active: IC50 [1] | Ki [1] | IC50 [2] | Ki [2] | IC50 (B2 bradykinin receptor) | IC50 [3] | IC50 [4] | IC50 [5] | IC50 [6] | Ki [6] | IC50 (Neutrophil elastase) | IC50 (Adenosine receptor A2a)

Nc1nc(N)c2nc(-c3ccccc3)c(N)nc2n1
Not Active: IC50 [1] | Ki [1] | IC50 [2] | Ki [2] | IC50 (B2 bradykinin receptor) | IC50 [3] | IC50 [4] | IC50 [5] | IC50 [6] | Ki [6] | IC50 (Neutrophil elastase) | IC50 (Adenosine receptor A2a)

CC(C)(C)NC[C@H](O)COc1cccc2c1CCCC2=O [LEVOBUNOLOL]
Not Active: IC50 [1] | Ki [1] | IC50 [2] | Ki [2] | IC50 (B2 bradykinin receptor) | IC50 [3] | IC50 [4] | IC50 [5] | IC50 [6] | Ki [6] | IC50 (Neutrophil elastase) | IC50 (Adenosine receptor A2a)

Cc1[nH]c(=O)c(C#N)cc1-c1ccncc1 [MILRINONE]
Not Active: IC50 [1] | Ki [1] | IC50 [2] | Ki [2] | IC50 (B2 bradykinin receptor) | IC50 [3] | IC50 [4] | IC50 [5] | IC50 [6] | Ki [6] | IC50 (Neutrophil elastase) | IC50 (Adenosine receptor A2a)

Cc1cn([C@H]2C=C[C@@H](CO)O2)c(=O)[nH]c1=O [STAVUDINE]
Not Active: IC50 [1] | Ki [1] | IC50 [2] | Ki [2] | IC50 (B2 bradykinin receptor) | IC50 [3] | IC50 [4] | IC50 [5] | IC50 [6] | Ki [6] | IC50 (Neutrophil elastase) | IC50 (Adenosine receptor A2a)

CCOc1cc(N)c(Cl)cc1C(=O)NCC1CN(Cc2ccc(F)cc2)CCO1 (configuration not stated) [MOSAPRIDE]
Not Active: IC50 [1] | Ki [1] | IC50 [2] | Ki [2] | IC50 (B2 bradykinin receptor) | IC50 [3] | IC50 [4] | IC50 [5] | IC50 [6] | Ki [6] | IC50 (Neutrophil elastase) | IC50 (Adenosine receptor A2a)

C#C[C@]1(O)CC[C@H]2[C@@H]3[C@H](C)CC4=C(CCC(=O)C4)[C@H]3CC[C@@]21C [TIBOLONE]
Not Active: IC50 [1] | Ki [1] | IC50 [2] | Ki [2] | IC50 (B2 bradykinin receptor) | IC50 [3] | IC50 [4] | IC50 [5] | IC50 [6] | Ki [6] | IC50 (Neutrophil elastase) | IC50 (Adenosine receptor A2a)

CC[C@H](C)[C@@H](CO[C@@H](Cc1ccccc1)C(=O)N[C@@H](CCS(C)(=O)=O)C(=O)OC(C)C)NC[C@@H](N)CS
Not Active: IC50 [1] | Ki [1] | IC50 [2] | Ki [2] | IC50 (B2 bradykinin receptor) | IC50 [3] | IC50 [4] | IC50 [5] | IC50 [6] | Ki [6] | IC50 (Neutrophil elastase) | IC50 (Adenosine receptor A2a)

OC[C@@H](O)[C@@H](O)[C@H](O)[C@H](O)CO [MANNITOL]
Not Active: IC50 [1] | Ki [1] | IC50 [2] | Ki [2] | IC50 (B2 bradykinin receptor) | IC50 [3] | IC50 [4] | IC50 [5] | IC50 [6] | Ki [6] | IC50 (Neutrophil elastase) | IC50 (Adenosine receptor A2a)

O=[As][O-].[Na+] [SODIUM ARSENITE]
Not Active: IC50 [1] | Ki [1] | IC50 [2] | Ki [2] | IC50 (B2 bradykinin receptor) | IC50 [3] | IC50 [4] | IC50 [5] | IC50 [6] | Ki [6] | IC50 (Neutrophil elastase) | IC50 (Adenosine receptor A2a)

Cc1cc2c(s1)Nc1ccccc1N=C2N1CCN(C)CC1 [OLANZAPINE]
Not Active: IC50 (B2 bradykinin receptor) | IC50 [3] | IC50 [4] | IC50 [5] | IC50 (Neutrophil elastase) | IC50 (Adenosine receptor A2a)

CNCCCC12CCC(c3ccccc31)c1ccccc12 [MAPROTILINE]
Not Active: IC50 (B2 bradykinin receptor) | IC50 [3] | IC50 [4] | IC50 [5] | IC50 (Neutrophil elastase) | IC50 (Adenosine receptor A2a)

CN(C)CCC=C1c2ccccc2COc2ccccc21 [DOXEPIN]
Not Active: IC50 (B2 bradykinin receptor) | IC50 [3] | IC50 [5] | IC50 (Neutrophil elastase) | IC50 (Adenosine receptor A2a)
